Data on 21 compounds can be found in PubChem BioAssay (NCI).

The structures appear in SMILES notation.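 Five compound concentrations were applied to cells in 96-well plates for 48 hours; endpoints were derived by simple linear interpolation of the resulting dose-response curve. GI50: concentration for 50% inhibition of growth. TGI: total growth inhibition.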 Where only a bound is given, the exact number is not on record here.

What all share (test): NCI tumour cell line growth inhibition, 48 h
Assay [1] concerns HCT-15 colon.
In assay [2] the test system is LOX IMVI melanoma.
For assay [3], the system named is M14 melanoma.
Assay [4] concerns MDA-N.
Assay [5] deals with OVCAR-4 ovarian.
Assay [6] has as its system OVCAR-5 ovarian.
Assay [7] has as its system RXF 393 renal.
For assay [8], the system named is CCRF-CEM leukemia.
For assay [9], the system named is MCF7 breast.
Assay [10] has as its system NCI-H460 lung.

For the compound `O=c1c(/C=C/c2c(O)ccc3ccccc23)nnc2sc(-c3cccc([N+](=O)[O-])c3)nn12`, the TGI is above 100 µM in assay [1]; above 100 µM in assay [2]; 68.4 µM in [3]; above 100 µM in [4]; 51.6 µM in [5]; above 100 µM in assay [6]. This compound showed a TGI in assay [7] above 100 µM.

As for `c1nncn1C12C3C4C5C3C1C5C42` (centres undefined), the TGI in [8], in assay [1], in [2], in [9], in [4] and in assay [10] was above 100 µM in each case. The compound further registered a TGI in assay [6] above 100 µM.

For `CCC(C)NC(=S)N/N=C(\C)c1ccccn1` (centres undefined), the TGI is above 100 µM in [1]; above 100 µM in assay [2]; above 80 µM in [4]; above 100 µM in [10]; above 100 µM in [5]; above 100 µM in assay [6]. This compound came in with a TGI in assay [7] of 26.9 µM.

In the case of `COC(=O)C1=COC(C)C2C[n+]3ccc4c([nH]c5ccccc54)c3CC12` (centres undefined), the TGI in [8], in assay [1], in assay [2], in [3], in assay [9] and in [4] was above 100 µM throughout. For the same compound, the TGI in assay [10], in [5] and in [6] was above 100 µM in each case.

For the compound `CCOC(=O)c1[nH]cnc1/N=N/N(C)N`, the TGI in assay [1], in assay [2], in assay [3], in assay [9], in assay [4] and in assay [10] was above 100 µM throughout. In addition, the TGI in assay [5], in assay [6] and in [7] was above 100 µM in each case.

In the case of `C/C=C1\CN2CCC34c5ccccc5N(C)C35OCC4(C(=O)OC)C1CC25` (centres undefined), the TGI in assay [8] is above 100 µM; in [1], above 100 µM; in assay [2] it was 58.3 µM; in assay [3], 45.4 µM; in [9] it was above 100 µM; in assay [4] it was above 100 µM. Also, the TGI was 64.8 µM in assay [10], above 100 µM in [5] and above 100 µM in assay [6].

On to `O=C1c2cc([N+](=O)[O-])cnc2S(=O)(=O)N1c1ccc(Br)cc1`, for which the TGI in assay [8], in assay [1], in assay [2], in assay [3], in assay [9] and in [4] was above 100 µM in each case. In addition, the TGI in assay [10], in assay [5] and in assay [6] was above 100 µM throughout.

In the case of `CCn1nc(-c2ccccc2)c2c1N(C)c1ccccc1-n1c(-c3ccccc3)nnc1-2`, the TGI in assay [8] was above 100 µM; in [1], 23.4 µM; in assay [2], 33 µM; in [3], 32.1 µM; in assay [9] it was 19.8 µM; in assay [4], 28.9 µM. The TGI in [10] turned out to be 29.2 µM; in [6] it was 33.5 µM.

With `COc1cc(C(=O)O[C@H](C(=O)NCCNC(=O)[C@@H](OC(=O)c2cc(OC)cc3c(C)cccc23)[C@]2(C)CO2)[C@]2(C)CO2)c2cccc(C)c2c1`, the GI50 in [8] was below 0.01 µM; in assay [1] it was 0.179 µM; in assay [2], below 0.01 µM; in assay [3], 0.178 µM; in assay [9] it was below 0.01 µM; in assay [10], below 0.0214 µM. The GI50 in assay [5] is 0.125 µM; in assay [6], 0.381 µM. Also, the TGI in assay [1] was 1.33 µM; in assay [3], 0.696 µM; in assay [9] it was 0.0238 µM; in assay [10], 0.359 µM; in [5], above 100 µM; in assay [6], 2.08 µM.

Consider `N#CC(c1nc2ccccc2s1)c1nc(Cl)ncc1Br` (centres undefined), for which the TGI in assay [1], in [2], in [3], in [4], in assay [10] and in assay [5] was above 100 µM each time. Besides, the TGI in assay [6] was above 100 µM; in assay [7], 90.3 µM.

With `Cc1ccc(S(=O)(=O)NC(=O)NC(Cc2ccccc2)C(=O)O)cc1` (centres undefined), the TGI in assay [8], in assay [1], in assay [2], in assay [3], in assay [9] and in assay [10] was above 100 µM in each case. Moreover, the TGI in assay [5], in assay [6] and in assay [7] was above 100 µM in each case.

Turning to `Fc1ccc(C2NC(=S)NC3=C2CCOc2c3ccc3ccccc23)cc1` (centres undefined), the TGI in assay [8], in assay [1], in assay [3], in assay [9], in assay [10] and in assay [5] was above 100 µM throughout. Besides, the TGI in assay [6] and in assay [7] was above 100 µM in each case.

In the case of `O=c1[nH]c(=S)c2cc3c(=S)[nH]c(=O)n(CCC(c4ccccc4)(c4ccccc4)c4ccccc4)c3nc2n1CCC(c1ccccc1)(c1ccccc1)c1ccccc1`, the TGI in [8] is 27.7 µM; in assay [1] it was above 100 µM; in assay [3] it was above 100 µM; in assay [9], above 100 µM; in assay [4] it was above 100 µM; in [10] it was above 100 µM. The TGI in assay [5] and in [6] was above 100 µM in each case.

`Cc1c(NC(=S)N/N=C\C(=N/NC(=S)Nc2c(C)n(C)n(-c3ccccc3)c2=O)c2ccccc2)c(=O)n(-c2ccccc2)n1C`: the TGI in assay [1], in assay [3], in [10], in assay [5], in [6] and in assay [7] was above 100 µM throughout.

Regarding `COC(=O)c1c(C)ccc2c(O)c3c(cc12)C(=O)c1c2c(cc(O)c1C3=O)C1(C)OC(C)(O2)C(O)C(N(C)C)C1O` (centres undefined), the TGI in [3] came to 10.4 µM; in assay [9] it was 8.04 µM; in assay [4] it was 2.58 µM; in assay [5], 8.81 µM; in [6], 7.19 µM.

Take `CC(C)(C)OC(=O)NC1CCCC1C(O)(C1=CCCC1)C1=CCCC1` (centres undefined): the TGI in assay [8], in assay [1], in assay [2], in [3], in assay [4] and in [10] was above 100 µM in each case. Besides, the TGI in assay [5], in assay [6] and in assay [7] was above 100 µM each time.

For the compound `Cc1ccc(S(=O)(=O)N(CC(O)c2ccccc2)c2ccccc2F)cc1` (centres undefined), the TGI in assay [8] turned out to be 64.5 µM; in assay [1], 33 µM; in assay [2] it was 31.5 µM; in assay [3], 31.9 µM; in assay [9], 28 µM; in assay [4], 33.8 µM. The TGI in assay [10] is 32.5 µM; in [5] it was 27.4 µM; in assay [6], 41 µM.

On to `O=C(Nc1ccc(Cl)cc1)c1cccc([N+](=O)[O-])c1O`, for which the TGI is 11.7 µM in assay [8]; above 88.3 µM in assay [1]; above 100 µM in [2]; 32.9 µM in assay [3]; above 53.5 µM in [10]; above 100 µM in assay [5]. Further, the TGI in [6] is above 100 µM; in [7] it was 6.67 µM.

For `CC(=O)c1cc2c(s1)C(=O)c1scc(C(C)=O)c1C2=O`, the TGI in assay [8] came to 0.59 µM; in [1] it was 1.07 µM; in assay [2], 0.224 µM; in [4] it was 0.358 µM; in assay [10], 1.27 µM; in assay [5], 0.454 µM. For the same compound, the TGI is 4.14 µM in [6] and 1.54 µM in assay [7].

For the compound `O=C(Nc1ccc(-n2cc(-c3ccncc3)c(-c3ccc(O)c(Cl)c3)n2)cc1)c1cc(Cl)cc(Cl)c1`, the GI50 in [8] was 1.45 µM; in [1], 0.908 µM; in assay [2] it was 0.853 µM; in [3], 0.712 µM; in assay [9], 3.33 µM; in assay [10], 2 µM. The GI50 was 2.56 µM in assay [5], above 32.5 µM in assay [6] and 0.575 µM in assay [7]. The TGI is above 32.5 µM in assay [8]; above 32.5 µM in assay [1]; above 32.5 µM in assay [2]; 1.68 µM in [3]; above 32.5 µM in assay [9]; above 32.5 µM in [10]. Besides, the figures for the TGI in assay [5], in assay [6] and in assay [7] were above 32.5 µM, above 32.5 µM and 1.13 µM, respectively.

For the compound `CN(C)c1ccc(/C=N/n2c(-c3ccccc3)nc3ccccc3c2=O)cc1`, the TGI in assay [8], in assay [1], in [2], in [3], in [9] and in [4] was above 100 µM throughout. The TGI in [10], in [5] and in [6] was above 100 µM throughout.
